Data published in patent publication US20060069132A1, “Azolecarboxamide herbicides” (priority 2004, published 2006).

How the values were obtained:
[1] = system: rice; assay: Test B flooded paddy test; format: in vivo, Oryza sativa; conditions: 1000 g ai/ha, visual rating, scale 0 to 100 (0 no effect, 100 complete control), 13 to 15 days
In short: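 Each value is a visual 0–100 response rating taken against controls 13 to 15 days after treatment in the greenhouse. Plants received formulated chemical postemergence at the 1- to 4-leaf stage or, in flooded paddy, at the 2-leaf stage.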

[2] = system: velvetleaf; assay: Test B pre-/postemergence herbicide test; format: in vivo, Abutilon theophrasti; conditions: for Velvetleaf plant response rating: postemergence, scale 0 (no effect) to 100 (complete control)
In short: (§1)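 Evaluation is visual, comparing treated with control plants on a scale where 0 means no effect and 100 means full control. Treatments were preemergence, or postemergence on seedlings 2–18 cm tall, and held 13–15 days in the greenhouse.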

[3] = system: small flower umbrella sedge; assay: Test B flooded paddy test; format: in vivo, Cyperus difformis; conditions: 1000 g ai/ha, visual rating, scale 0 to 100 (0 no effect, 100 complete control), 13 to 15 days
In short: (§2)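 Postemergence plants were sprayed with formulated test chemicals at 2 to 18 cm height (1- to 4-leaf stage); paddy species were grown to the 2-leaf stage. After 13 to 15 days in a greenhouse, injury was rated visually against untreated controls on a 0–100 scale (0 = no effect, 100 = complete control).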

[4] = system: ducksalad; assay: Test B flooded paddy test; format: in vivo, Heteranthera limosa; conditions: 1000 g ai/ha, visual rating, scale 0 to 100 (0 no effect, 100 complete control), 13 to 15 days
In short: as §2

[5] = system: giant foxtail; assay: Test B pre-/postemergence herbicide test; format: in vivo, Setaria faberi; conditions: for Foxtail, Giant plant response rating: postemergence, scale 0 (no effect) to 100 (complete control)
In short: as §1

[6] = system: lambsquarters; assay: Test B pre-/postemergence herbicide test; format: in vivo, Chenopodium album; conditions: for Lambsquarters plant response rating: postemergence, scale 0 (no effect) to 100 (complete control)
In short: as §1

[7] = system: wild oat; assay: Test B postemergence herbicide test; format: in vivo, Avena fatua; conditions: postemergence, visual rating, scale 0 (no effect) to 100 (complete control)
In short: as §2

[8] = system: rice; assay: Test B pre-/postemergence herbicide test; format: in vivo, Oryza sativa; conditions: 0 = no effect, 100 = complete control, preemergence
In short: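 Plants compared with untreated controls 13–15 days post-treatment and given a visual 0–100 injury score. Applications: preemergence to seeds; postemergence at 1- to 4-leaf (2–18 cm); paddy species flooded, 2-leaf stage. Vehicle non-phytotoxic, surfactant included.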

[9] = system: large crabgrass; assay: Test B pre-/postemergence herbicide test; format: in vivo, Digitaria sanguinalis; conditions: for Crabgrass, Large plant response rating: postemergence, scale 0 (no effect) to 100 (complete control)
In short: as §1

[10] = system: rice; assay: Test C flooded paddy test; format: in vivo, Oryza sativa
In short: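 Plants were grown to the 1- to 4-leaf stage (2–18 cm) and then treated postemergence, or grown to the 2-leaf stage for the flooded paddy test. They were held in a greenhouse for 12 to 14 days and then scored by eye against controls, where 0 is no effect and 100 is complete control.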

[11] = system: barnyardgrass; assay: Test B pre-/postemergence herbicide test; format: in vivo, Echinochloa crus-galli; conditions: 0 = no effect, 100 = complete control, preemergence
In short: (§3)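 Seeds were planted and treated preemergence with compounds formulated in a non-phytotoxic solvent mixture containing surfactant, while plants at the 1- to 4-leaf stage (2 to 18 cm) received postemergence sprays. Flooded paddy plants were grown to the 2-leaf stage. After 13 to 15 days in a greenhouse, injury was visually rated 0–100 against untreated controls.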

[12] = system: smallflower umbrella sedge; assay: Test C flooded paddy test; format: in vivo, Cyperus difformis
[13] = system: blackgrass; assay: Test B postemergence herbicide test; format: in vivo, Alopecurus myosuroides; conditions: postemergence, visual rating, scale 0 (no effect) to 100 (complete control)
In short: as §2

[14] = system: barnyardgrass; assay: Test B flooded paddy test; format: in vivo, Echinochloa crus-galli; conditions: 1000 g ai/ha, visual rating, scale 0 to 100 (0 no effect, 100 complete control), 13 to 15 days
In short: as §2

[15] = system: Surinam grass; assay: Test B pre-/postemergence herbicide test; format: in vivo, Urochloa decumbens; conditions: for Surinam Grass plant response rating: postemergence, scale 0 (no effect) to 100 (complete control)
In short: as §1

[16] = system: corn; assay: Test B pre-/postemergence herbicide test; format: in vivo, Zea mays; conditions: for Corn plant response rating: postemergence, scale 0 (no effect) to 100 (complete control)
In short: as §1

[17] = system: ducksalad; assay: Test C flooded paddy test; format: in vivo, Heteranthera limosa
[18] = system: pigweed; assay: Test B pre-/postemergence herbicide test; format: in vivo, Amaranthus retroflexus
In short: as §1

[19] = system: wheat; assay: Test B postemergence herbicide test; format: in vivo, Triticum aestivum; parameters: key to Wheat plant response rating: 0 = no effect, 100 = complete control; conditions: postemergence, visual rating, scale 0 (no effect) to 100 (complete control)
In short: as §2

[20] = system: cocklebur; assay: Test B pre-/postemergence herbicide test; format: in vivo, Xanthium strumarium; conditions: for Cocklebur plant response rating: postemergence, scale 0 (no effect) to 100 (complete control)
In short: as §3

[21] = system: morningglory; assay: Test B pre-/postemergence herbicide test; format: in vivo, Ipomoea coccinea; conditions: for Morningglory plant response rating: postemergence, scale 0 (no effect) to 100 (complete control)
In short: as §3

[22] = system: barnyardgrass; assay: Test C flooded paddy test; format: in vivo, Echinochloa crus-galli
In short: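 Postemergence sprays applied to plants 2 to 18 cm tall (1- to 4-leaf stage); paddy species grown to 2-leaf stage under flooding. After 12 to 14 days in greenhouse, visual rating versus untreated controls on 0–100 scale (0 no effect, 100 complete control).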

[23] = 125 g ai/ha, 0 = no effect, 100 = complete control, preemergence
[24] = 500 g ai/ha, visual rating, 0 = no effect, 100 = complete control, preemergence
[25] = 62 g ai/ha, scale 0 to 100 (0 no effect, 100 complete control)
[26] = 125 g ai/ha, scale 0 to 100 (0 no effect, 100 complete control)
[27] = 250 g ai/ha, scale of 0 to 100, 0 is no effect, 100 is complete control
[28] = 500 g ai/ha, visual rating after 12 to 14 days, scale 0 to 100 (0 no effect, 100 complete control)

CCN(C)C(=O)c1cccc(NC(=O)c2sc(C(C)(C)C)nc2C)c1 [Compound 227]
100: Plant response rating, Velvetleaf [2, 24] | Plant response rating, Crabgrass, Large [9, 24] | Plant response rating, Pigweed [18, 24]
40: Crabgrass, Large plant response rating (0 to 100 scale) [9, 23] | Corn plant response rating ([16]; 500 g ai/ha, visual rating)
30: Velvetleaf plant response rating (0 to 100 scale) [2, 23] | Crabgrass, Large plant response rating ([9]; 125 g ai/ha, visual rating) | Crabgrass, Large plant response rating ([9]; 500 g ai/ha, visual rating) | Blackgrass plant response rating ([13]; 500 g ai/ha) | Surinam Grass plant response rating (0 to 100 scale) [15, 23] | Surinam Grass plant response rating ([15]; 500 g ai/ha, visual rating) | Corn plant response rating ([16]; 125 g ai/ha, visual rating) | Cocklebur plant response rating ([20]; 500 g ai/ha, visual rating)
20: Velvetleaf plant response rating ([2]; 125 g ai/ha, visual rating) | Blackgrass plant response rating ([13]; 125 g ai/ha) | Pigweed plant response rating ([18]; postemergence, 125 g ai/ha, visual rating, scale 0 (no effect) to 100 (complete control)) | Cocklebur plant response rating ([20]; 125 g ai/ha, visual rating) | Plant response rating, Morningglory [21, 24]
0: Lambsquarters plant response rating (0 to 100 scale) [6, 23] | Oat, Wild plant response rating ([7]; 125 g ai/ha) | Oat, Wild plant response rating ([7]; 500 g ai/ha) | Rice plant response rating [10, 25] | Rice plant response rating [10, 26] | Barnyardgrass plant response rating (0 to 100 scale) ([11]; 125 g ai/ha) | Sedge, Umbrella plant response rating [12, 25] | Sedge, Umbrella plant response rating [12, 26] | Sedge, Umbrella plant response rating [12, 27] | Corn plant response rating (0 to 100 scale) [16, 23] | Ducksalad plant response rating [17, 25] | Ducksalad plant response rating [17, 26] | Ducksalad plant response rating [17, 27] | Pigweed plant response rating (0 to 100 scale) [18, 23] | Wheat plant response rating ([19]; 125 g ai/ha) | Cocklebur plant response rating (0 to 100 scale) [20, 23] | Plant response rating, Cocklebur [20, 24] | Morningglory plant response rating (0 to 100 scale) [21, 23] | Barnyardgrass plant response rating [22, 25] | Barnyardgrass plant response rating [22, 26] | Barnyardgrass plant response rating [22, 27] | Plant response rating, Barnyardgrass [22, 28]
15: Plant response rating, Sedge, Umbrella [12, 28]
60: Foxtail, Giant plant response rating ([5]; 500 g ai/ha, visual rating) | Plant response rating, Barnyardgrass ([11]; 500 g ai/ha, visual rating) | Morningglory plant response rating ([21]; 500 g ai/ha, visual rating)
25: Rice plant response rating [10, 27]
70: Rice plant response rating [1] | Velvetleaf plant response rating ([2]; 500 g ai/ha, visual rating) | Plant response rating, Foxtail, Giant [5, 24] | Lambsquarters plant response rating ([6]; 500 g ai/ha, visual rating) | Plant response rating, Rice ([8]; 500 g ai/ha, visual rating) | Barnyardgrass plant response rating [14] | Plant response rating, Surinam Grass [15, 24]
10: Foxtail, Giant plant response rating (0 to 100 scale) [5, 23] | Foxtail, Giant plant response rating ([5]; 125 g ai/ha, visual rating) | Rice plant response rating (0 to 100 scale) ([8]; 125 g ai/ha) | Surinam Grass plant response rating ([15]; 125 g ai/ha, visual rating) | Wheat plant response rating ([19]; 500 g ai/ha)
80: Ducksalad plant response rating [4]
90: Plant response rating, Lambsquarters [6, 24]
50: Sedge, Umbrella plant response rating [3] | Lambsquarters plant response rating ([6]; 125 g ai/ha, visual rating) | Plant response rating, Corn [16, 24] | Morningglory plant response rating ([21]; 125 g ai/ha, visual rating)
55: Plant response rating, Rice [10, 28] | Plant response rating, Ducksalad [17, 28]
